Assay results from patent US20080214555A1 (priority 2007, published 2008).
Read-outs that look alike come from different tables or passages of the source.

Assays:
[1] = background statement; cited from earlier work
[2] = test system: patients with non-ST elevation acute coronary syndrome; test: MERLIN-TIMI 36: arrhythmias on 7 day continuous ECG (Holter) recording; assay type: in vivo, human
Method: Continuous ECG (Holter) recording was performed for the first 7 days after randomization. Because of the known prolongation of the QT interval with ranolazine, analyses of a prespecified set of arrhythmias were a major objective of the trial. All arrhythmias were evaluated in the TIMI ECG Core Laboratory by cardiologists blinded to treatment and outcomes.
Continuous ECG (cECG or Holter) recording was performed for the first 7 days after randomization. Prespecified arrhythmia analyses were evaluated by a core laboratory blinded to treatment and outcomes.

[3] = test system: patients with non-ST elevation acute coronary syndrome; test: MERLIN-TIMI 36: Seattle Angina Questionnaire scores at 4 months; assay type: in vivo, human; conditions: ITT
Source text: The MERLIN-TIMI 36 secondary efficacy endpoint (ITT) Seattle Angina Questionnaire scores at 4 months for anginal frequency scale are shown in Table 16 below, and scores for physical limitation scale are shown in Table 17 below.

[4] = test system: patients with non-ST elevation acute coronary syndrome
[5] = Example 8 table, first 7 days, n = 3162
[6] = Table 24, all patients dosed, n = 3268
[7] = incidence of ventricular tachyarrhythmias table
[8] = 30 days, all patients dosed, n = 3268
[9] = 60 days, all patients dosed, n = 3268
[10] = 360 days, all patients dosed, n = 3268
[11] = 540 days, all patients dosed, n = 3268
[12] = endpoint death or CV hospitalization, all patients dosed, n = 3268
[13] = ranolazine vs placebo, all patients dosed

COc1ccccc1OCC(O)CN1CCN(CC(=O)Nc2c(C)cccc2C)CC1 (racemic) [Ranolazine, (±)-N-(2,6-dimethylphenyl)-4-[2-hydroxy-3-(2-methoxyphenoxy)-propyl]-1-piperazineacetamide]
Prolonging the QTc interval [1]: 2 to 5 ms
Episode of ventricular arrhythmia lasting >=8 beats, % ([2]; Example 8): 5.5%
Episode of ventricular arrhythmia lasting >=8 beats, number of patients ([2]; Example 8): 175
New-onset atrial fibrillation, % ([2]; Example 8): 1.7%
New-onset atrial fibrillation, number of patients ([2]; Example 8): 55
Pauses >=3 seconds, % ([2]; Example 8): 3.1%
Pauses >=3 seconds, number of patients ([2]; Example 8): 97
Supraventricular tachycardia, % ([2]; Example 8): 43.2%
Supraventricular tachycardia, number of patients ([2]; Example 8): 1413
Any ventricular tachycardia >= 3 beats, % [2, 5]: (29.0) %
Any ventricular tachycardia >= 3 beats, number [2, 5]: 948
Brady, Complete heart block, or Pause >= 2.5 sec, % [2, 5]: (38.5) %
Brady, Complete heart block, or Pause >= 2.5 sec, number [2, 5]: 1257
Bradycardia < 45 bpm for at least 4 beats, % [2, 5]: (37.8) %
Bradycardia < 45 bpm for at least 4 beats, number [2, 5]: 1236
Clinically Significant Arrhythmia on Holter, % [2, 5]: (71.3) %
Clinically Significant Arrhythmia on Holter, number [2, 5]: 2330
Pause >3 secs, % [2, 5]: (3.1) %
Pause >3 secs, number [2, 5]: 97
Pause >3 secs: AV node block, % [2, 5]: (1.0) %
Pause >3 secs: AV node block, number [2, 5]: 31
Pause >3 secs: Other, % [2, 5]: (0.1) %
Pause >3 secs: Other, number [2, 5]: 2
Pause >3 secs: Sinoatrial node block, % [2, 5]: (2.0) %
Pause >3 secs: Sinoatrial node block, number [2, 5]: 64
Polymorphic VT >= 8 beats, % [2, 5]: (1.2) %
Polymorphic VT >= 8 beats, number [2, 5]: 38
Sustained VT (>=30 secs), % [2, 5]: (0.44) %
Sustained VT (>=30 secs), number [2, 5]: 14
Sustained VT (>=30 secs): Monomorphic, % [2, 5]: (0.12) %
Sustained VT (>=30 secs): Monomorphic, number [2, 5]: 4
Sustained VT (>=30 secs): Polymorphic, % [2, 5]: (0.32) %
Sustained VT (>=30 secs): Polymorphic, number [2, 5]: 10
Triplets, % [2, 5]: (46.9) %
Triplets, number [2, 5]: 1532
VT >= 4 beats, % [2, 5]: (23.6) %
VT >= 4 beats, number [2, 5]: 772
VT >= 8 beats (<30 secs), % [2, 5]: (5.5) %
VT >= 8 beats (<30 secs), number [2, 5]: 175
Episode of ventricular tachycardia lasting >8 beats, % ([2]; Example 9): 5.3%
Episode of ventricular tachycardia lasting >8 beats, number of patients ([2]; Example 9): 166
New-onset atrial fibrillation, % ([2]; Example 9): 1.7%
New-onset atrial fibrillation, number of patients ([2]; Example 9): 55
Pauses >3 seconds, % ([2]; Example 9): 3.1%
Pauses >3 seconds, number of patients ([2]; Example 9): 97
Supraventricular tachycardia, % ([2]; Example 9): 44.7%
Supraventricular tachycardia, number of patients ([2]; Example 9): 1413
Incidence of ventricular tachycardia ([2]; No. of beats ≧8): 5.3%
Incidence of ventricular tachycardia ([2]; No. of beats ≧10): 3.5%
Incidence of ventricular tachycardia ([2]; No. of beats ≧15): 1.3%
Incidence of ventricular tachycardia ([2]; No. of beats ≧20): 0.9%
Any Clinically Significant Arrhythmia during 7 day Holter, % [2, 6]: (71.3%)
Any Clinically Significant Arrhythmia during 7 day Holter, number [2, 6]: 2330
Bradycardic episode during 7 day Holter, % [2, 6]: (38.5%)
Bradycardic episode during 7 day Holter, number [2, 6]: 1257
New onset atrial fibrillation during 7 day Holter, % [2, 6]: (1.7%)
New onset atrial fibrillation during 7 day Holter, number [2, 6]: 55
Supraventricular tachycardia (any SVT >= 120 bpm) during 7 day Holter, % [2, 6]: (43.2%)
Supraventricular tachycardia (any SVT >= 120 bpm) during 7 day Holter, number [2, 6]: 1413
Ventricular tachycardia (any VT >= 100 bpm >= 3 beats) during 7 day Holter, % [2, 6]: (29.0%)
Ventricular tachycardia (any VT >= 100 bpm >= 3 beats) during 7 day Holter, number [2, 6]: 948
Polymorphic VT >= 8 beats on cECG, % [2, 7]: (1.2) %
Sustained VT (>=30 sec) on cECG, % [2, 7]: (0.44) %
VT ≧ 3 beats (≧100 b/m) on cECG, % [2, 7]: (52.1) %
VT ≧ 4 beats (≧100 b/m) on cECG, % [2, 7]: (20.9) %
VT ≧ 8 beats (<30 sec) on cECG, % [2, 7]: (5.3) %
Polymorphic VT >= 8 beats on cECG, Δ n ([2]; placebo vs ranolazine): 10
Sustained VT (>=30 sec) on cECG, Δ n ([2]; placebo vs ranolazine): 0
VT ≧ 3 beats (≧100 b/m) on cECG, Δ n ([2]; placebo vs ranolazine): 347
VT ≧ 4 beats (≧100 b/m) on cECG, Δ n ([2]; placebo vs ranolazine): 279
VT ≧ 8 beats (<30 sec) on cECG, Δ n ([2]; placebo vs ranolazine): 99
Polymorphic VT >= 8 beats on cECG, Δ (%) ([2]; ranolazine vs placebo): (−21) %
VT ≧ 3 beats (≧100 b/m) on cECG, Δ (%) ([2]; ranolazine vs placebo): (−17) %
VT ≧ 4 beats (≧100 b/m) on cECG, Δ (%) ([2]; ranolazine vs placebo): (−30) %
VT ≧ 8 beats (<30 sec) on cECG, Δ (%) ([2]; ranolazine vs placebo): (−37) %
Incidence of ventricular tachycardia of >8 beats ([2]; subgroup baseline QTc >450 msec): 5.6%
Incidence of ventricular tachycardia of >8 beats ([2]; subgroup baseline QTc ≦450 msec): 5.2%
Incidence of ventricular tachycardia of >8 beats ([2]; subgroup ejection fraction <40%): 8.8%
Incidence of ventricular tachycardia of >8 beats ([2]; subgroup ejection fraction ≧40%): 5.3%
Seattle Angina Questionnaire physical limitation scale score, 25th percentile-75th percentile ([3]; N 2339): 55.6-94.4
Seattle Angina Questionnaire physical limitation scale score, Mean (SEM) ([3]; N 2339): 72.8 (0.5)
Seattle Angina Questionnaire physical limitation scale score, Median ([3]; N 2339): 77.8
Seattle Angina Questionnaire physical limitation scale score, Min-Max ([3]; N 2339): 0-100
Seattle Angina Questionnaire anginal frequency scale score, 25th percentile-75th percentile ([3]; N 2558): 80-100
Seattle Angina Questionnaire anginal frequency scale score, Mean (SEM) ([3]; N 2558): 84.3 (0.4)
Seattle Angina Questionnaire anginal frequency scale score, Median ([3]; N 2558): 100
Seattle Angina Questionnaire anginal frequency scale score, Min-Max ([3]; N 2558): 0-100
Incidence (Kaplan-Meier estimate) of death from any cause [4, 8]: 1.8%
Incidence (Kaplan-Meier estimate) of death or CV hospitalization [4, 8]: 9.2%
Incidence (Kaplan-Meier estimate) of death from any cause [4, 9]: 2.2%
Incidence (Kaplan-Meier estimate) of death or CV hospitalization [4, 9]: 15.0%
Incidence (Kaplan-Meier estimate) of death from any cause ([4]; 180 days, all patients dosed, n = 3268): 3.4%
Incidence (Kaplan-Meier estimate) of death from any cause [4, 10]: 5.3%
Incidence (Kaplan-Meier estimate) of death or CV hospitalization [4, 10]: 32.8%
Incidence (Kaplan-Meier estimate) of death from any cause [4, 11]: 7.0%
Incidence (Kaplan-Meier estimate) of death or CV hospitalization [4, 11]: 37.6%
Symptomatic documented arrhythmias ([4]; Example 7): 3.0%
Clinically reported sudden cardiac death, number ([4]; Example 8): 56
Pts with events: death from any cause (safety endpoint) ([4]; all patients dosed, n = 3268): 172
Pts with events: first occurrence of death or CV hospitalization (safety endpoint) ([4]; all patients dosed, n = 3268): 1037
Symptomatic documented arrhythmias: Bradyarrhythmias, % ([4]; all patients dosed, n = 3268): 1.0%
Symptomatic documented arrhythmias: Bradyarrhythmias, number ([4]; all patients dosed, n = 3268): 34
Symptomatic documented arrhythmias: Cardiac arrest NOS, % ([4]; all patients dosed, n = 3268): 0.3%
Symptomatic documented arrhythmias: Cardiac arrest NOS, number ([4]; all patients dosed, n = 3268): 10
Symptomatic documented arrhythmias: Pts. with Arrhythmias - Overall, % ([4]; all patients dosed, n = 3268): 3.0%
Symptomatic documented arrhythmias: Pts. with Arrhythmias - Overall, number ([4]; all patients dosed, n = 3268): 99
Symptomatic documented arrhythmias: Supraventricular arrhythmias, % ([4]; all patients dosed, n = 3268): 1.2%
Symptomatic documented arrhythmias: Supraventricular arrhythmias, number ([4]; all patients dosed, n = 3268): 38
Symptomatic documented arrhythmias: Ventricular arrhythmias, % ([4]; all patients dosed, n = 3268): 0.7%
Symptomatic documented arrhythmias: Ventricular arrhythmias, number ([4]; all patients dosed, n = 3268): 22
Endpoint-defining events: CV hospitalization, % of pts with events [4, 12]: 89.3%
Endpoint-defining events: CV hospitalization, number [4, 12]: 926
Endpoint-defining events: Death, % of pts with events [4, 12]: 10.7%
Endpoint-defining events: Death, number [4, 12]: 111
HR, total mortality ([4]; ranolazine vs placebo, 95% CI 0.80-1.22): 0.99
Relative risk (SE), death from any cause [4, 13]: 0.988 (0.11)
Relative risk (SE), death or CV hospitalization [4, 13]: 0.981 (0.04)
Symptomatic documented arrhythmias ([4]; women): 2.6%
